Where two headings read alike, the source gives them in different places.
Tests used:
[1] = target: T1, human opioid receptor (μ) (Homo sapiens, UniProt P35372); assay: Opioid receptor binding, [3H]DAMGO (μ)
T1 construct: expressed in transfected cells

[2] = target: T2, human opioid receptor (δ) (Homo sapiens, UniProt P41143); assay: Opioid receptor binding, [3H]naltrindole (δ)
T2 construct: expressed in transfected cells

[3] = target: T3, human opioid receptor (κ) (Homo sapiens, UniProt P41145); assay: Opioid receptor binding, [3H]U69,593 (κ)
T3 construct: expressed in transfected cells
T3 sequence (P41145 whole entry): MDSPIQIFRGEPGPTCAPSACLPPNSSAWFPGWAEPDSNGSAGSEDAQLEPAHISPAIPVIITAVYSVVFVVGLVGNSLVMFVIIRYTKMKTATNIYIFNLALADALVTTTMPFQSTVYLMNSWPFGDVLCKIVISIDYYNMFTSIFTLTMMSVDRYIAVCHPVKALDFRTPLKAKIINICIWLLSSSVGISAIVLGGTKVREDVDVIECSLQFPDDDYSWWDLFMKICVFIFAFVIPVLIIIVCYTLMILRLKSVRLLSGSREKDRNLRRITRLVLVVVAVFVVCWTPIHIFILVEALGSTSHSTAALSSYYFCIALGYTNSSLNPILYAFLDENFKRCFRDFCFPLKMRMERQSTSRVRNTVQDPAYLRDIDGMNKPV

[4] = system: mice; settings: cited from earlier work; for duration of action: 1 mg/kg ip in mice
[5] = system: guinea pig μ receptors; settings: cyclazocine series; μ printed as ∥; cited from earlier work
[6] = system: κ opioid receptors; settings: cyclazocine series; cited from earlier work
[7] = target: T4, human μ opioid receptor (Homo sapiens, UniProt P35372); assay: [35S]GTPγS binding assay, μ; assay type: biochemical; settings: agonist/antagonist character; antagonism vs 200 nM DAMGO
T4 construct: expressed in transfected cells
T4 sequence (P35372 whole entry): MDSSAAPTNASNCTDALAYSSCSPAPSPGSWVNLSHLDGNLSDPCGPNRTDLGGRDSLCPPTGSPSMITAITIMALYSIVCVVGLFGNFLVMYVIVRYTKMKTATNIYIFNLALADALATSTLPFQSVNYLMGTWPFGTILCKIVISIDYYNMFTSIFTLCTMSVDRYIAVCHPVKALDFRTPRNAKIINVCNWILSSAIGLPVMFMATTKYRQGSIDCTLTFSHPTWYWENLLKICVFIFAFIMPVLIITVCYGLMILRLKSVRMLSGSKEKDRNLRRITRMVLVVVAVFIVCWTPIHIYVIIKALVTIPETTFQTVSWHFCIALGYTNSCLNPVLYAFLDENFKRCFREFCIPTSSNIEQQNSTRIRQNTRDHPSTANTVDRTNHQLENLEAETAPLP

[8] = target: T5, human κ opioid receptor (Homo sapiens, UniProt P41145); assay: [35S]GTPγS binding assay, κ; assay type: biochemical; settings: agonist/antagonist character; antagonism vs 100 nM U50,488
T5 construct: expressed in transfected cells
T5 sequence (P41145 whole entry): as the sequence (P41145 whole entry) above

[9] = read-out: Ki [3H]DAMGO (μ), CHO cell membranes, […] [3H]DAMGO, mean±SEM
[10] = read-out: Ki [3H]Naltrindole (δ), CHO cell membranes, 0.2 nM [3H]naltrindole, mean±SEM
[11] = CHO cell membranes, 1 nM [3H]U69,593, mean±SEM, read-out: Ki [3H]U69,593 (K)

T1 sequence (P35372 whole entry): as the sequence (P35372 whole entry) above
T2 sequence (P41143 whole entry): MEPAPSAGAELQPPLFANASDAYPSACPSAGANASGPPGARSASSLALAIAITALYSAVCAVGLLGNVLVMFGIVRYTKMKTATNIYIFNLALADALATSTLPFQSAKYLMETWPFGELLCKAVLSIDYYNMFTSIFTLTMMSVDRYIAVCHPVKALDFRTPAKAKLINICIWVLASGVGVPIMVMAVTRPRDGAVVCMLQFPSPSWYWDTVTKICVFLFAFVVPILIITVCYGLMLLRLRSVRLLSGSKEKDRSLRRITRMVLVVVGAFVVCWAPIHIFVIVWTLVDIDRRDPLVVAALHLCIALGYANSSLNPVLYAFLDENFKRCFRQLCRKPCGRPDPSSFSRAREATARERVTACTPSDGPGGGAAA

CC1C2Cc3ccc(C(N)=O)c(N)c3C1(C)CCN2CC1CC1 (mixture of isomers) [Example 6, Cis-(±)-3-(cyclopropylmethyl)-1,2,3,4,5,6-hexahydro-6,11-dimethyl-7-amino-2,6-methano-3-benzazocine-8-carboxamide]
Ki [1]: 0.55 ± 0.029 nM | Ki [2]: 35 ± 0.036 nM | Ki [3]: 0.7 ± 0.036 nM

C[C@H]1C2Cc3cc(N)c(C(N)=O)cc3[C@@]1(C)CCN2CC1CC1 (racemic) [Example 7, Cis-(±)-3-(cyclopropylmethyl)-1,2,3,4,5,6-hexahydro-6,11-dimethyl-9-amino-2,6-methano-3-benzazocine-8-carboxamide]
Ki [1]: 88 ± 5.2 nM | Ki [2]: 2000 ± 12 nM | Ki [3]: 32 ± 1.7 nM

C[C@H]1C2Cc3ccc(C(N)=O)cc3[C@@]1(C)CCN2CC1CC1 [Example 8-CAC, 8-carboxamidocyclazocine]
duration of action [4]: 15 h | antinociception activity ([4]; studies in vivo): high antinociception activity | affinity for μ opioid receptors [5]: high affinity | affinity for κ opioid receptors [6]: high affinity

C[C@H]1C2Cc3ccc4c(=O)[nH]cnc4c3[C@@]1(C)CCN2CC1CC1 [Example 8]
Ki [1, 9]: 270 ± 33 nM | Ki [2, 10]: 2000 ± 49 nM | Ki [3, 11]: 160 ± 7.1 nM

C[C@H]1C2Cc3cc4nc[nH]c(=O)c4cc3[C@@]1(C)CCN2CC1CC1 [Example 9]
Ki [1, 9]: 170 ± 6.7 nM | Ki [2, 10]: 780 ± 32 nM | Ki [3, 11]: 12 ± 0.65 nM

CC1C2Cc3ccc4c(N)ncnc4c3C1(C)CCN2CC1CC1 (centres unmarked) [Example 10]
Ki [1]: 0.55 ± 0.018 nM | Ki [2]: 120 ± 8.5 nM | Ki [3, 11]: 1 ± 0.071 nM | GTPγS data, MOR [7]: MOR and KOR antagonist | GTPγS data, KOR [8]: MOR and KOR antagonist

CC1C2Cc3cc4ncnc(N)c4cc3C1(C)CCN2CC1CC1 (centres unmarked) [Example 11]
Ki [1]: 890 ± 39 nM | inhibition at 10 µM ([2]; read-out: inh. of [3H]Naltrindole (δ) binding, at 10 μM): 47% | Ki [3, 11]: 560 ± 23 nM

CC1C2Cc3ccc4c(NCc5ccccc5)ncnc4c3C1(C)CCN2CC1CC1 (centres unmarked) [Example 12]
Ki [1]: 44 ± 0.76 nM | Ki [2]: 1500 ± 68 nM | Ki [3, 11]: 240 ± 1.8 nM

CC1C2Cc3cc4ncnc(NCc5ccccc5)c4cc3C1(C)CCN2CC1CC1 (centres unmarked) [Example 13]
Ki [1]: 88 ± 7.2 nM | Ki [2]: 1000 ± 37 nM | Ki [3, 11]: 48 ± 2.3 nM

CC1C2Cc3ccc4c(NCCc5ccc(-c6ccccc6)cc5)ncnc4c3C1(C)CCN2CC1CC1 (centres unmarked) [Example 14]
Ki [1]: 6.9 ± 0.33 nM | Ki [2]: 52 ± 2.6 nM | Ki [3, 11]: 8.6 ± 1.5 nM

CC1C2Cc3cc4ncnc(NCCc5ccc(-c6ccccc6)cc5)c4cc3C1(C)CCN2CC1CC1 (centres unmarked) [Example 15]
Ki [1]: 28 ± 1.9 nM | Ki [2]: 410 ± 61 nM | Ki [3, 11]: 140 ± 4.4 nM

C[C@H]1C2Cc3ccc4[nH]nnc4c3[C@@]1(C)CCN2CC1CC1 [Example 29]
Ki [1, 9]: 1.4 ± 0.043 nM | Ki [2, 10]: 46 ± 2.6 nM | Ki [3, 11]: 0.23 ± 0.009 nM | GTPγS data, MOR [7]: antagonist | GTPγS data, KOR [8]: agonist

C[C@H]1C2Cc3cc4nn[nH]c4cc3[C@@]1(C)CCN2CC1CC1 [Example 30]
Ki [1, 9]: 10 ± 1 nM | Ki [2, 10]: 51 ± 7.8 nM | Ki [3, 11]: 0.81 ± 0.19 nM | GTPγS data, MOR [7]: antagonist | GTPγS data, KOR [8]: agonist

CC1C2Cc3cc4nc[nH]c4cc3C1(C)CCN2CC1CC1 (centres unmarked) [Example 34]
Ki [1]: 0.31 ± 0.05 nM | Ki [2]: 5.1 ± 0.65 nM | Ki [3, 11]: 0.063 ± 0.0016 nM | GTPγS data, MOR [7]: MOR weak agonist/antagonist, KOR

Cc1nc2cc3c(cc2[nH]1)CC1C(C)C3(C)CCN1CC1CC1 (centres unmarked) [Example 35]
Ki [1]: 0.77 ± 0.051 nM | Ki [2]: 18 ± 0.9 nM | Ki [3, 11]: 0.05 ± 0.002 nM | GTPγS data, MOR [7]: MOR agonist/weak antagonist; KOR | GTPγS data, KOR [8]: agonist

CC1C2Cc3cc4[nH]c(=O)[nH]c4cc3C1(C)CCN2CC1CC1 (centres unmarked) [Example 36]
Ki [1]: 60 ± 7.9 nM | Ki [2]: 730 ± 8.3 nM | Ki [3, 11]: 12 ± 1.3 nM

C[C@H]1C2Cc3ccc4c(N)onc4c3[C@@]1(C)CCN2CC1CC1 [Example 43]
Ki [1]: 0.75 ± 0.038 nM | Ki [2]: 99 ± 10 nM | Ki [3, 11]: 0.65 ± 0.005 nM

C[C@H]1[C@H]2Cc3ccc(O)cc3[C@]1(C)CCN2CC1CC1 [cyclazocine]
duration of action [4]: 2 h
